Test results reported in patent US20090246209A1, “GNRH ANALOGUES FOR TREATMENT OF URINARY INCONTINENCE” (priority 2000, published 2009).
Values joined by “and” are separate entries in the source; they are usually repeats but may differ in a detail not shown here. Identical values can stand only once. “Also recorded” adds a separate entry of the source.

Tests used:
[1] = tested on: bitches suffering from urinary incontinence after spaying; test: GnRH analogue slow release implant in bitches with urinary incontinence after spaying; type: in vivo, dog; conditions: for Side effects: dash = none
Method: Additionally, for a limited period the dogs were treated with phenylpropanolamine in a dosage of 1.5 mg/kg BW tid orally.
After discontinuation of the shortacting phenylpropanolamine 8 bitches remained continent. Their continence was therefore achieved solely by the treatment with the composition as described in the present invention. Seven out of fifteen dogs seemed to be much happier and in none of the dogs did the general condition deteriorate. […] The respective results are shown in more detail in table 1.

[2] = tested on: menopausal person suffering from stress incontinence; test: 24 hour pad test in a menopausal person with stress incontinence; type: in vivo, human; conditions: single dose of 3.75 mg; 2 weeks after treatment; before treatment 10 to 130 ml daily
Method: A second menopausal person, suffering from stress incontinence for at least 6 years, was treated with a single dose of 3.75 mg of leuprolide acetate. 24 hour pad tests conducted prior to treatment with the drug indicated they lost between 10 and 130 ml of urine on a daily basis due to their incontinence.

[3] = tested on: client owned dogs suffering from urinary incontinence; test: double-blind, placebo-control study of long-acting GnRH analogue in incontinent dogs; type: in vivo, dog
Method: In a second ongoing study, 16 client owned dogs suffering from urinary incontinence were enrolled in a double-blind, placebo-control study. In the initial phase of the study, dogs were randomly assigned to treatment with a long-acting GnRH analogue (leuprolide acetate) or placebo (dog owners and the investigators were blinded to treatment) along with a short course of therapy with phenylpropanolamine. 5 weeks after treatment with drug or placebo, dogs were evaluated and, if not fully continent, treated with a long-acting GnRH analogue (leuprolide acetate) in an open label phase of the study. To date only 1 of 10 dogs treated with placebo became continent vs. […] treated with drug during the blinded portion of the study. Overall, the results generated thus far indicate […] dogs treated with the long-acting GnRH analogue became continent and […] improved after discontinuation of the short acting phenylpropanolamine. Only 1 dog of 15 treated with the GnRH analogue was considered not to have improved following treatment with the drug.

[4] = tested on: cocker spaniel bitches showing excessive growth of the undercoat due to spaying; test: coat quality in spayed cocker spaniel bitches with excessive growth of the undercoat; type: in vivo, dog; conditions: 5 mg slow release s.c. implant
Method: Two cocker spaniel bitches belonging to the same owner were showing excessive growth of the undercoat due to spaying. […] Both dogs were first clinically examined and thereafter a GnRH analogue (Deslorelin) in a dosage of 5 mg, in slow release form, was subcutaneously implanted between the shoulder blades.

[5] = tested on: perimenopausal person with urge incontinence and hotflushes; test: treatment of a perimenopausal person with urge incontinence and hotflushes; type: in vivo, human; conditions: 3.75 mg; one person
[6] = 11.25 mg slow release s.c. implant, with PPA

Buserelin acetate [Buserelinacetate]
Side effects ([1]; 6.3 mg slow release s.c. implant): agile, more | Duration of effect after treatment ([1]; 6.3 mg slow release s.c. implant, without PPA): 44 days and 83 days

CCNC(=O)[C@@H]1CCCN1C(=O)[C@H](CCCNC(=N)N)NC(=O)[C@H](CC(C)C)NC(=O)[C@@H](CC(C)C)NC(=O)[C@H](Cc1ccc(O)cc1)NC(=O)[C@H](CO)NC(=O)[C@H](Cc1c[nH]c2ccccc12)NC(=O)[C@H](Cc1c[nH]cn1)NC(=O)[C@@H]1CCC(=O)N1 [Leuprorelinacetate, Leuprolid acetate]
Duration of effect after treatment [1, 6]: >64 days | Effect on incontinence [1, 6]: 100% | Duration of effect after treatment ([1]; 11.25 mg slow release s.c. implant, without PPA): 0 days | Duration of effect after treatment ([1]; 11.25 mg slow release s.c. implant, without PPA, listed as Leuprorelin acetate): >14 days | daily urine loss (pad test) [2]: 1 mL | dogs that became continent ([3]; blinded portion, 5 weeks after treatment, with short course of phenylpropanolamine, placebo 1 of 10): 3 to 8 dogs | dogs considered not to have improved ([3]; overall, of 15 dogs treated): 1 dog | dogs that became continent ([3]; overall, of 15 dogs treated, after discontinuation of phenylpropanolamine): 6 dogs | dogs that improved ([3]; overall, of the remaining dogs, after discontinuation of phenylpropanolamine): 9 dogs

Deslorelin acetate [Deslorelinacetate]
Side effects ([1]; 6 mg slow release s.c. implant): agile, more; also recorded: More playfull | Effect on incontinence ([1]; 6 mg slow release s.c. implant, with PPA (phenylpropanolamine)): 100% | Side effects ([1]; 12 mg slow release s.c. implant): More self-; also recorded: More tolerant; also recorded: less aggres- | Effect on incontinence ([1]; 12 mg slow release s.c. implant, with PPA): 80% and 100% | coat quality ([4]; 5 weeks after the injection, both dogs): obvious amelioration of the coat quality | signs of baby coat ([4]; 21 weeks after injection): no signes of “baby coat” were apparent anymore

Triptorelin acetate [Triptorelinacetate]
Effect on incontinence ([1]; 3.75 mg slow release s.c. implant, 36 kg bitch, dose too low): Not effec- | Duration of effect after treatment ([1]; 3.75 mg slow release s.c. implant, dose too low): 0 | period of improvement of both symptoms [5]: about 4 weeks | urge incontinence and hotflushes, reported change [5]: improved considerably
